US20250186405A1, “Compound For Use In Treating Narcolepsy” (Alkermes, Inc., priority 2023, published 2025)

System: subjects with narcolepsy type-2 (NT2)
Test: Part 5 POC NT2: treatment-emergent adverse events, single doses, crossover
[1] = Total (any Compound A dose), N = 9

Protocol: Part 5 consisted of a 4-way, 4-period crossover study design in approximately 8 subjects (2 subjects per sequence; minimum of 4 subjects with 1 subject per sequence). Subjects were randomized 1:1:1:1 to 1 of 4 sequences with 4 treatment periods (3 single doses of Compound A and 1 dose of matching placebo), with up to 48 hours of washout between treatments. Treatments were administered under fasted state.
Subjects were randomized to 1 of 4 sequences. […] In each period, subjects were administered a single dose of study drug (either Compound A or placebo) as per the randomization schedule with approximately 240 mL of noncarbonated water following overnight fasting. No food was given for at least 3 hours after dose administration (i.e., fast can be broken after the 3-hour PK time point is collected). Water was allowed ad libitum except for 1 hour before and 1 hour after study drug administration. Safety assessments including AEs, safety ECGs, vital signs, and clinical laboratory tests were conducted, and plasma PK samples were collected. Furthermore, BP and HR were monitored once every hour for 12 hours on the dosing days.
Adverse events (AEs) and serious adverse events (SAEs) were monitored continuously until the completion of the study.
Nine subjects with NT2 were dosed in Part 5 (POC in NT2) in a randomized 4-sequence 4-period cross-over design. Each dose of Compound A or matching placebo was separated by 2 days. A 14-day washout period preceded the treatment period and included discontinuation of narcolepsy medications. All 9 subjects underwent the washout period and received at least one dose of Compound A. All subjects completed all 4-way randomized crossover periods.

SMILES: CS(=O)(=O)N[C@H]1CCCN2C(=O)COc3ccccc3C3CCC(CC3)OCC12 (stereo partly drawn) [Compound A, N-[(4S,4aR,7α,10α)-1,2,3,4,4a,5,7,8,9,10,16,17-dodecahydro-17-oxo-7,10-ethanopyrido[1,2-d][1,7,4]benzodioxaazacyclotridecin-4-yl]methanesulfonamide]
- Any SAEs (25 mg single dose, N = 9): 0 n (%)
- Any TEAE (25 mg single dose, N = 9): 7 (77.8) n (%)
- Death (25 mg single dose, N = 9): 0 n (%)
- Drug Related TEAE by Preferred Term: Altered state of consciousness (25 mg single dose, N = 9): 0 n (%)
- Drug Related TEAE by Preferred Term: Dizziness (25 mg single dose, N = 9): 2 (22.2) n (%)
- Drug Related TEAE by Preferred Term: Dizziness postural (25 mg single dose, N = 9): 1 (11.1) n (%)
- Drug Related TEAE by Preferred Term: Feeling jittery (25 mg single dose, N = 9): 1 (11.1) n (%)
- Drug Related TEAE by Preferred Term: Headache (25 mg single dose, N = 9): 1 (11.1) n (%)
- Drug Related TEAE by Preferred Term: Initial insomnia (25 mg single dose, N = 9): 0 n (%)
- Drug Related TEAE by Preferred Term: Insomnia (25 mg single dose, N = 9): 2 (22.2) n (%)
- Drug Related TEAE by Preferred Term: Photophobia (25 mg single dose, N = 9): 1 (11.1) n (%)
- Drug Related TEAE by Preferred Term: Pollakiuria (25 mg single dose, N = 9): 3 (33.3) n (%)
- Drug Related TEAE by Preferred Term: Tachycardia (25 mg single dose, N = 9): 0 n (%)
- Drug Related TEAE by Preferred Term: Urinary incontinence (25 mg single dose, N = 9): 1 (11.1) n (%)
- Subjects with at least one TEAE (25 mg single dose, N = 9): 7 (77.8) n (%)
- Subjects with at least one treatment-related TEAE (25 mg single dose, N = 9): 6 (66.7) n (%)
- TEAE by Highest Relationship: Not Related (25 mg single dose, N = 9): 1 (11.1) n (%)
- TEAE by Highest Relationship: Related (25 mg single dose, N = 9): 6 (66.7) n (%)
- TEAE by Highest Severity: Mild (25 mg single dose, N = 9): 6 (66.7) n (%)
- TEAE by Highest Severity: Moderate (25 mg single dose, N = 9): 1 (11.1) n (%)
- TEAE by Highest Severity: Severe (25 mg single dose, N = 9): 0 n (%)
- TEAE by Preferred Term: Altered state of consciousness (25 mg single dose, N = 9): 0 n (%)
- TEAE by Preferred Term: Constipation (25 mg single dose, N = 9): 0 n (%)
- TEAE by Preferred Term: Contusion (25 mg single dose, N = 9): 1 (11.1) n (%)
- TEAE by Preferred Term: Dizziness (25 mg single dose, N = 9): 2 (22.2) n (%)
- TEAE by Preferred Term: Dizziness postural (25 mg single dose, N = 9): 1 (11.1) n (%)
- TEAE by Preferred Term: Dry skin (25 mg single dose, N = 9): 0 n (%)
- TEAE by Preferred Term: Feeling jittery (25 mg single dose, N = 9): 1 (11.1) n (%)
- TEAE by Preferred Term: Headache (25 mg single dose, N = 9): 1 (11.1) n (%)
- TEAE by Preferred Term: Initial insomnia (25 mg single dose, N = 9): 0 n (%)
- TEAE by Preferred Term: Insomnia (25 mg single dose, N = 9): 2 (22.2) n (%)
- TEAE by Preferred Term: Nasal dryness (25 mg single dose, N = 9): 1 (11.1) n (%)
- TEAE by Preferred Term: Nausea (25 mg single dose, N = 9): 0 n (%)
- TEAE by Preferred Term: Photophobia (25 mg single dose, N = 9): 1 (11.1) n (%)
- TEAE by Preferred Term: Pollakiuria (25 mg single dose, N = 9): 3 (33.3) n (%)
- TEAE by Preferred Term: Rash (25 mg single dose, N = 9): 0 n (%)
- TEAE by Preferred Term: Skin lesion (25 mg single dose, N = 9): 0 n (%)
- TEAE by Preferred Term: Tachycardia (25 mg single dose, N = 9): 0 n (%)
- TEAE by Preferred Term: Urinary incontinence (25 mg single dose, N = 9): 1 (11.1) n (%)
- Tolerability (NT2, 5, 12 and 25 mg): well tolerated
- Subjects with at least one TEAE (NT2, N = 9, all periods): 77.8%
- AE Leading to Study Drug Discontinuation [1]: 0 n (%)
- Any SAEs [1]: 0 n (%)
- Any TEAE [1]: 7 (77.8) n (%)
- Death [1]: 0 n (%)
- Drug Related TEAE by Preferred Term: Altered state of consciousness [1]: 0 n (%)
- Drug Related TEAE by Preferred Term: Dizziness [1]: 2 (22.2) n (%)
- Drug Related TEAE by Preferred Term: Dizziness postural [1]: 1 (11.1) n (%)
- Drug Related TEAE by Preferred Term: Feeling jittery [1]: 1 (11.1) n (%)
- Drug Related TEAE by Preferred Term: Headache [1]: 1 (11.1) n (%)
- Drug Related TEAE by Preferred Term: Initial insomnia [1]: 1 (11.1) n (%)
- Drug Related TEAE by Preferred Term: Insomnia [1]: 2 (22.2) n (%)
- Drug Related TEAE by Preferred Term: Photophobia [1]: 1 (11.1) n (%)
- Drug Related TEAE by Preferred Term: Pollakiuria [1]: 3 (33.3) n (%)
- Drug Related TEAE by Preferred Term: Tachycardia [1]: 0 n (%)
- Drug Related TEAE by Preferred Term: Urinary incontinence [1]: 1 (11.1) n (%)
- Subjects with at least one TEAE [1]: 7 (77.8) n (%)
- Subjects with at least one treatment-related TEAE [1]: 6 (66.7) n (%)
- TEAE by Highest Relationship: Not Related [1]: 1 (11.1) n (%)
- TEAE by Highest Relationship: Related [1]: 6 (66.7) n (%)
- TEAE by Highest Severity: Mild [1]: 6 (66.7) n (%)
- TEAE by Highest Severity: Moderate [1]: 1 (11.1) n (%)
- TEAE by Highest Severity: Severe [1]: 0 n (%)
- TEAE by Preferred Term: Altered state of consciousness [1]: 0 n (%)
- TEAE by Preferred Term: Constipation [1]: 1 (11.1) n (%)
- TEAE by Preferred Term: Contusion [1]: 1 (11.1) n (%)
- TEAE by Preferred Term: Dizziness [1]: 2 (22.2) n (%)
- TEAE by Preferred Term: Dizziness postural [1]: 1 (11.1) n (%)
- TEAE by Preferred Term: Dry skin [1]: 1 (11.1) n (%)
- TEAE by Preferred Term: Feeling jittery [1]: 1 (11.1) n (%)
- TEAE by Preferred Term: Headache [1]: 1 (11.1) n (%)
- TEAE by Preferred Term: Initial insomnia [1]: 1 (11.1) n (%)
- TEAE by Preferred Term: Insomnia [1]: 2 (22.2) n (%)
- TEAE by Preferred Term: Nasal dryness [1]: 1 (11.1) n (%)
- TEAE by Preferred Term: Nausea [1]: 1 (11.1) n (%)
- TEAE by Preferred Term: Photophobia [1]: 1 (11.1) n (%)
- TEAE by Preferred Term: Pollakiuria [1]: 3 (33.3) n (%)
- TEAE by Preferred Term: Rash [1]: 1 (11.1) n (%)
- TEAE by Preferred Term: Skin lesion [1]: 1 (11.1) n (%)
- TEAE by Preferred Term: Tachycardia [1]: 0 n (%)
- TEAE by Preferred Term: Urinary incontinence [1]: 1 (11.1) n (%)
